Reference: PubChem BioAssay AID1949 (Southern Research Institute, 2009)
Converted amounts (≈) assume the structure as drawn. Results filed as inconclusive are left out. The source made the active and inactive calls. No rule for the calls is given here.

System: M. tuberculosis H37Rv growth inhibition
Experiment: Confirmatory growth inhibition assay against Mycobacterium tuberculosis H37Rv, potency (AID 1949);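 also: bacteria grown 7 days with compound before Alamar blue readout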

Structure (SMILES): O=C(Nc1cccc(I)c1)C(Cl)Cl
- IC50: 5.84 µg/mL (≈ 17.7 µM)

Structure (SMILES): CN=c1c([N+](=O)[O-])nn(-c2ccccc2)n1O
- IC50: > 50 µg/mL (inactive)

Structure (SMILES): Brc1c(OCCCn2ccnc2)ccc2ccccc12
- IC50: 1.56 µg/mL (≈ 4.71 µM)

Structure (SMILES): CCN(CC)c1ccc(-n2nc3cc(C)c(N)cc3n2)c(C)c1
- IC50: 13.1 µg/mL (≈ 42.3 µM)

Structure (SMILES): COC(=O)COc1ccc(NC(=O)COc2ccc(C)cc2C)cc1
- IC50: < 0.1 µg/mL

Structure (SMILES): CC(=O)Cc1nc(-c2ccccc2)no1
- IC50: > 50 µg/mL (inactive)

Structure (SMILES): COCCCN1C(=O)c2cccc3c([N+](=O)[O-])ccc(c23)C1=O
- IC50: 15.3 µg/mL (≈ 48.7 µM)

Structure (SMILES): CCc1ccc(Nc2ncnc3ccc(Br)cc23)cc1
- IC50: 4.16 µg/mL (≈ 12.7 µM)

Structure (SMILES): O=C(/C=C/c1ccccc1OC(=O)c1cccnc1)c1ccc(Cl)cc1
- IC50: 5.61 µg/mL (≈ 15.4 µM)

Structure (SMILES): CCOC(=O)c1c(NC(=O)c2c(F)c(F)c(F)c(F)c2F)sc(C(=O)OC)c1C
- IC50: 0.37 µg/mL (≈ 0.846 µM)

Structure (SMILES): O=C(Nc1ccccc1Cl)c1cc([N+](=O)[O-])ccc1O
- IC50: 7.53 µg/mL (≈ 25.7 µM)

Structure (SMILES): CCn1c(NC(=S)Nc2ccccc2)nc2ccccc21
- IC50: > 50 µg/mL (inactive)

Structure (SMILES): O=C(CC1(O)C(=O)N(CCc2ccccc2)c2ccc(Cl)cc21)c1ccc2c(c1)OCCO2 (centres undefined)
- IC50: 7.71 µg/mL (≈ 16.6 µM)

Structure (SMILES): CCC(Oc1ccc2c(-c3ccccc3)cc(=O)oc2c1)C(=O)OCc1ccccc1 (centres undefined)
- IC50: 3.8 µg/mL (≈ 9.17 µM)

Structure (SMILES): Cc1ccc(OCC(=O)c2ccc(C)cc2)cc1
- IC50: 50 µg/mL (≈ 208 µM)

Structure (SMILES): O=[N+]([O-])/C=C/c1ccccc1OCc1cccc(F)c1
- IC50: 6.26 µg/mL (≈ 22.9 µM)

Structure (SMILES): CCOC(=O)Cc1c(C)nc2c(-c3cccc(Br)c3)c[nH]n2c1=O
- IC50: 1.69 µg/mL (≈ 4.33 µM)

Structure (SMILES): CC1CCN(CCNC(=S)Nc2ccc(F)cc2)CC1
- IC50: 1.54 µg/mL (≈ 5.21 µM)

Structure (SMILES): Cc1nc2c(o1)C1(C(=O)N2C)C(C#N)=C(N)N(c2ccccc2)c2ccccc21 (centres undefined)
- IC50: 6.25 µg/mL (≈ 16.3 µM)

Structure (SMILES): Cn1nc([N+](=O)[O-])nc1Sc1ncnn1-c1ccccc1
- IC50: 2.98 µg/mL (≈ 9.83 µM)

Structure (SMILES): CC(C)COc1ccc(-c2nn(-c3ccccc3)cc2C(=O)Nc2nccs2)cc1
- IC50: 0.19 µg/mL (≈ 0.454 µM)

Structure (SMILES): CCn1cc(C(=O)O)c(=O)c2cc(F)c(N3CCN(S(=O)(=O)c4ccc(NC(C)=O)cc4)CC3)cc21
- IC50: 36.6 µg/mL (≈ 70.8 µM)

Structure (SMILES): CCOC(=O)c1cc(-c2ccc(/C=C/[N+](=O)[O-])o2)ccc1Cl
- IC50: > 50 µg/mL (inactive)

Structure (SMILES): O=C(COc1ccc([N+](=O)[O-])cc1)Nc1ccccc1F
- IC50: 18.7 µg/mL (≈ 64.6 µM)

Structure (SMILES): Cc1ccc(C(C)(C)C)c(OCCCn2ccnc2)c1
- IC50: 3.87 µg/mL (≈ 14.2 µM)

Structure (SMILES): CCCc1cc2c(-c3ccccc3)cc(=O)oc2cc1OCC
- IC50: > 50 µg/mL (inactive)

Structure (SMILES): CCOC(=O)COc1ccc(S(=O)(=O)N2CCc3ccccc3C2)cc1
- IC50: 0.64 µg/mL (≈ 1.7 µM)

Structure (SMILES): Cc1cc(N2CCCC2)c(C)cc1/C=C\[N+](=O)[O-]
- IC50: > 50 µg/mL (inactive)

Structure (SMILES): CCOc1ccc(C(=O)NC(=S)Nc2ccc(CN3CCOCC3)cc2)cc1Cl
- IC50: 15.7 µg/mL (≈ 36.2 µM)

Structure (SMILES): c1ccc(CN2CCN(CCCOc3cccc4ccccc34)CC2)cc1
- IC50: 4.68 µg/mL (≈ 13 µM)

Structure (SMILES): Oc1ccc(CNc2ccccc2O)cc1
- IC50: 1.02 µg/mL (≈ 4.74 µM)

Structure (SMILES): CCOC(=O)Cn1nnc(-c2ccc(OCc3ccccc3F)cc2)n1
- IC50: 0.28 µg/mL (≈ 0.786 µM)

Structure (SMILES): CCOc1ccc(NC(=O)CSc2nc3ccc([N+](=O)[O-])cc3s2)cc1
- IC50: 1.99 µg/mL (≈ 5.11 µM)

Structure (SMILES): O=C(OCc1ccccc1Cl)c1cc2ccccc2oc1=O
- IC50: > 50 µg/mL (inactive)

Structure (SMILES): COC(=O)c1ccc(CSc2nnc(-c3ccccc3)o2)o1
- IC50: > 50 µg/mL (inactive)

Structure (SMILES): COc1ccccc1-c1coc2cc(OCC(=O)OC3CCCCC3)ccc2c1=O
- IC50: 0.24 µg/mL (≈ 0.588 µM)

Structure (SMILES): COc1ccccc1-n1c(=O)oc2ccc(Cl)cc2c1=O
- IC50: 4.95 µg/mL (≈ 16.3 µM)

Structure (SMILES): O=C1OCCC1Sc1cccc2cccnc12 (centres undefined)
- IC50: 7.31 µg/mL (≈ 29.8 µM)

Structure (SMILES): COc1cc(CNc2ccc(F)c(Cl)c2)ccc1OCC(=O)NC1CCCCC1
- IC50: 5.53 µg/mL (≈ 13.1 µM)

Structure (SMILES): O=C(Oc1cccc2cccnc12)c1cccc([N+](=O)[O-])c1
- IC50: 10.8 µg/mL (≈ 36.7 µM)

Structure (SMILES): CCOC(=O)COc1ccc(-c2ccc(C)cc2)cc1
- IC50: 0.33 µg/mL (≈ 1.22 µM)

Structure (SMILES): COc1ccc(C(=O)c2ccc(N3CCN(C)CC3)c([N+](=O)[O-])c2)c2ccccc12
- IC50: 5.57 µg/mL (≈ 13.7 µM)

Structure (SMILES): C=C(C)CN1CCN(c2nc(NCc3ccco3)c3ccccc3n2)CC1
- IC50: 4.56 µg/mL (≈ 12.5 µM)

Structure (SMILES): Cc1ccc(SCC(=O)Nc2ccc(C)c([N+](=O)[O-])c2)cc1
- IC50: 2.18 µg/mL (≈ 6.89 µM)

Structure (SMILES): COc1ccccc1C1=Nc2cccc3cccc(c23)N1
- IC50: 0.24 µg/mL (≈ 0.875 µM)

Structure (SMILES): CC(Nc1nc(N2CCN(C(=O)c3ccc(Cl)cc3)CC2)nc2ccccc12)c1ccccc1 (centres undefined)
- IC50: 2.7 µg/mL (≈ 5.72 µM)

Structure (SMILES): CCCCc1ccc(NC(=O)c2cc3cc(Br)cc(OC)c3oc2=O)cc1
- IC50: 0.69 µg/mL (≈ 1.6 µM)

Structure (SMILES): S=C(NCc1ccc(Cl)cc1)N1CCN(C/C=C/c2ccccc2)CC1
- IC50: 1.99 µg/mL (≈ 5.16 µM)

Structure (SMILES): CC(=O)c1cccc(Nc2nc(-c3ccccn3)cs2)c1
- IC50: 0.98 µg/mL (≈ 3.32 µM)

Structure (SMILES): COc1ccc(CNCCC(c2ccc(OC)cc2)c2ccccc2OC)cc1 (centres undefined)
- IC50: 8 µg/mL (≈ 20.4 µM)

Structure (SMILES): Cc1ccccc1NC(=O)C(Cc1ccccc1)NC(=O)c1ccccc1 (centres undefined)
- IC50: 37.5 µg/mL (≈ 105 µM)

Structure (SMILES): CCCN1C(=O)c2cccc3cc([N+](=O)[O-])cc(c23)C1=O
- IC50: < 0.1 µg/mL

Structure (SMILES): Cc1cc2ncn(Cc3ccc(C(C)C)cc3)c2cc1C
- IC50: 0.91 µg/mL (≈ 3.27 µM)

Structure (SMILES): N#Cc1cc2c(cc1C#N)OC(c1ccccc1)=NN2
- IC50: 16.4 µg/mL (≈ 63.1 µM)

Structure (SMILES): Clc1cc(Br)ccc1OCCCn1ccnc1
- IC50: 15 µg/mL (≈ 47.4 µM)

Structure (SMILES): COc1ccc2cc(-c3nn(-c4ccccc4)cc3CO)ccc2c1
- IC50: > 50 µg/mL (inactive)

Structure (SMILES): COc1cccc(OC)c1C(=O)Nc1cccc(-c2nc3cc(C)ccc3o2)c1
- IC50: > 50 µg/mL (inactive)

Structure (SMILES): c1ccc(CNc2cc(-n3cccn3)nc(-c3ccccc3)n2)cc1
- IC50: > 50 µg/mL (inactive)

Structure (SMILES): COc1ccc(C)cc1NC(=O)c1ccc(CN2CCC(Cc3ccccc3)CC2)cc1
- IC50: 3.36 µg/mL (≈ 7.84 µM)
